The text below walks through data of paper PMC7307906, “Macrocyclic Modalities Combining Peptide Epitopes and Natural Product Fragments” (Journal of the American Chemical Society, 2020).

In experiment [1] the target is T1, human MC4R (Homo sapiens, UniProt P32245).
T1 construct: expressed in transfected cells
As to the kind of experiment: Melanocortin receptor radioligand binding (SPA, [125I]-NDP-α-MSH displacement), MC4R. The following applies: competitive binding, mean (± SEM) of at least three independent experiments, read-out: IC50 hMC4R binding.

A further experiment deals with hMC1−5R. Description: Melanocortin receptor radioligand binding, result stated for all receptors together. Further details: species or system human. From the text:
Example concentration response curves for selected PepNats in MC1R, MC3R, MC4R, MC5R radioligand binding assays and MC1R, MC3R, MC4R cAMP assays. Responses were normalized to reference agonist NDP -α-MSH and presented as % effect of control, with full competition in binding defined as -100% and full agonism in cAMP assays defined as […]
binding assay. Threshold to define a compound as active was set to -30% in binding assays and 20% in cAMP assays respectively. Data are from at least three independent experiments and error bars represent ± Standard Error of the […]
% s p e c ific b in d in g o f
(1 picture or pasted object on this page, not shown here) […]
expression, MC1R and MC4R transfected cells were treated with 0.1 ng /mL and MC3R transfected cells with 10 ng/mL doxycyclin, for 24 h before assay.
Melanocortin receptor radioligand binding and cAMP assays.
Binding and cAMP assays were performed as described by Durek et al.7 “A 384-well format scintillation proximity assay (SPA) was used to identify compounds that show competitive binding to the human Melanocortin receptor 1,3,4 or 5 ligand binding domain (LBD). […] The inhibition of the scintillation signal by displacement of [ 125I]- NDP-α-MSH by test compounds were detected by a 1450 MicroBeta Trilux scintillation counter […]
Plates were incubated for 16-23 h in the dark at room temperature before reading on a 1450 […]
Measurements of cAMP production were performed using LANCE® cAMP kits (PerkinElmer) in a total assay volume of 12 µl/well. […] The reaction was stopped with detection buffer containing 10 µM Biotin-cAMP and 15 µM LANCE Eu-W8044 labelled streptavidin (PerkinElmer LANCE cAMP kit). cAMP production was detected by homogenous time resolved fluorescence (HTRF) (λex = 340 nm, λem = 665 and 615 nm) using a Pherastar (BMG Labtech).
PepNats, literature compounds and references were tested in ten-point concentration response (½ log serial dilution) with 100, 10 or 1 µM as final start concentrations. Raw data output was analyzed in Screener software (Genedata AG) and pEC50 and pIC50 values calculated using a four-

Another experiment concerns the target T2, human MC5R (Homo sapiens, UniProt P33032).
T2 construct: expressed in transfected cells; host or cells: HEK293-6E suspension cells, transient expression; membranes
Description: Melanocortin receptor radioligand binding (SPA, [125I]-NDP-α-MSH displacement), MC5R. The following applies: competitive binding, [125I]-NDP-α-MSH; mean (± SEM) of at least three independent experiments; read-out: IC50 hMC5R binding.

For another experiment, the target named is T3, human MC1R (Homo sapiens, UniProt Q01726).
T3 construct: expressed in transfected cells
T3 sequence (Q01726 whole entry): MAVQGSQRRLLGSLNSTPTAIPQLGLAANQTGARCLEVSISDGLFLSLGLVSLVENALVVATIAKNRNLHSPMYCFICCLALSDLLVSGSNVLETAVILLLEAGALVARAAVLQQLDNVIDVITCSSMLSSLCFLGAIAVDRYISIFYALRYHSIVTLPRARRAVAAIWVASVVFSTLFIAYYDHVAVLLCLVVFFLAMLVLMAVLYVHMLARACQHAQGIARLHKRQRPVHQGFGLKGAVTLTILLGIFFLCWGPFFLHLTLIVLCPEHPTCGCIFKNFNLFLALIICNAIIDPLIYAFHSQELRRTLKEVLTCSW
As to the kind of experiment: Melanocortin receptor radioligand binding (SPA, [125I]-NDP-α-MSH displacement), MC1R. Particulars: competitive binding, mean (± SEM) of at least three independent experiments, read-out: IC50 hMC1R binding.

Experiment [2] has as its target T1, human MC4R. Description: cAMP assay (LANCE) in T-Rex-293 cells expressing MC4R. Particulars: cAMP assay; mean (± SEM) of at least three independent experiments; read-out: EC50 hMC4R cAMP. The format is cell-based. On the technique in general: Changes in cAMP serve as a functional read-out for many G protein-coupled receptors.
The target in a further experiment is T4, human MC3R (Homo sapiens, UniProt P41968).
T4 construct: expressed in transfected cells
T4 sequence (P41968 whole entry): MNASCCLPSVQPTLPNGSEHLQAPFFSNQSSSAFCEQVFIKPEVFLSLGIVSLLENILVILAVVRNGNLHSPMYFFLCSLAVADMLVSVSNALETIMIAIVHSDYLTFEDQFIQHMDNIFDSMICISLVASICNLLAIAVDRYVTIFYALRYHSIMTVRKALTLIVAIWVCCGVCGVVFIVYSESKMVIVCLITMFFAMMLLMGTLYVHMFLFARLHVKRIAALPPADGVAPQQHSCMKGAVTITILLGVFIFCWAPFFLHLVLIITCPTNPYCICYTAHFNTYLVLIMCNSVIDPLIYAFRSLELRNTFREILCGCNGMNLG
Description: cAMP assay (LANCE) in T-Rex-293 cells expressing MC3R. It is filed as cell-based. The following applies: cAMP assay; mean (± SEM) of at least three independent experiments; read-out: EC50 hMC3R cAMP.

Each structure is given as a SMILES string.

A word on the IC50: it is the concentration that gives 50% inhibition. A word on the EC50: it is the concentration that produces a half-maximal response.

T1 sequence (P32245 whole entry): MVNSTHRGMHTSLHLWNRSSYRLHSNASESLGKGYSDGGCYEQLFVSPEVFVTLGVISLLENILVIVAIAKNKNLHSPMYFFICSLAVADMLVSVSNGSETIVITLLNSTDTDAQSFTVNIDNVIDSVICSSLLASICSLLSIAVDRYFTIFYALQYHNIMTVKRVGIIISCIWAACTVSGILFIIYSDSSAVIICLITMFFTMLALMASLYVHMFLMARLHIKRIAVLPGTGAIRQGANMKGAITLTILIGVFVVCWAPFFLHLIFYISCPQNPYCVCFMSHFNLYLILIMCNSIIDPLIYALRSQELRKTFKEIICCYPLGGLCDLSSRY
T2 sequence (P33032 whole entry): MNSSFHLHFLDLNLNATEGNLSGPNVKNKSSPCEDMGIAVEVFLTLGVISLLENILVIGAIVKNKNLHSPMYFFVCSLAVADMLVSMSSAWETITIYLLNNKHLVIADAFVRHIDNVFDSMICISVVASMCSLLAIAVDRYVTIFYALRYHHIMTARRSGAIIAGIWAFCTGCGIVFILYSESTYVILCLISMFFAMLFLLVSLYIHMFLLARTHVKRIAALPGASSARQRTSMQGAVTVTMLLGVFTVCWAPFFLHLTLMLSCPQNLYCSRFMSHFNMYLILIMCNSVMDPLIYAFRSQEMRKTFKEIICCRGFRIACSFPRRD

Consider `CN1C(=O)[C@H]2N[C@@H](c3ccc(cc3)C(=O)NCCCC[C@@H](C(=O)N[C@@H](Cc3ccc(O)cc3)C(N)=O)NC(=O)[C@H](CC(N)=O)NC(=O)[C@@H](Cc3ccccc3)NC(=O)[C@@H](Cc3ccccc3)NC(=O)[C@H](CCCNC(=N)N)NC(=O)[C@@H]1Cc1ccccc1)[C@H]1C(=O)N(c3ccccc3)C(=O)[C@H]12` [K1-minor, [II-FRffNK ]Y], for which the half-inhibitory concentration (IC50) at human MC4R [1] was greater than 100 µM; at hMC1−5R (competitive binding, one bound printed for all receptors) it was greater than 100 µM; on human MC5R it was greater than 100 µM; on human MC1R, greater than 100 µM. Besides, in the experiment with hMC1−5R (human MC receptors, radioligand binding), the “binding to the MC receptors (in words)” value is “did not bind to any of the receptors”. Moreover, the EC50 at human MC4R [2] and at human MC3R was greater than 100 µM in each case.
